Data: PMC5384962, “First-in-human studies of seletalisib, an orally bioavailable small-molecule PI3Kδ inhibitor for the treatment of immune and inflammatory diseases” (European Journal of Clinical Pharmacology, 2017)
Like-named read-outs stand apart in the source and are kept apart here.

Experiments:
[1] = Study-1 Part-B safety/tolerability (adverse events, laboratory, OGTT), multiple doses; settings: for Deaths: Study-1 multiple doses
Method: In Study-1 (Part-B), a total of 27 subjects were enrolled, two cohorts of healthy subjects (n = 9 in each) and one cohort of subjects with mild-to-moderate psoriasis (n = 9). Subjects were randomised (2:1) to ascending multiple doses of seletalisib (5, 8 and 15 mg) or placebo for 14 days.
Adverse events (AEs), serious AEs (SAEs), routine clinical laboratory parameters, vital signs and ECGs were monitored throughout the study periods and for ≤7 days post-administration of final-dose of seletalisib/placebo. The potential for seletalisib to cause gastrointestinal (GI) tract adverse effects was assessed by careful monitoring of subject reports of AEs such as abdominal pain, bloating, nausea, vomiting and alteration of bowel function (e.g. diarrhoea, constipation or bleeding). A formal safety review was conducted before each dose escalation. In Study-1 (Part-B), the potential for seletalisib to interfere with insulin signalling was assessed by monitoring blood glucose and C-peptide levels as part of the standard laboratory tests and by performance of oral glucose tolerance tests, measuring glucose and C-peptide levels, pre-dose and during exposure in all cohorts.
In each study, the primary population for analysis was the full analysis set (FAS), which comprised all subjects who had received ≥1 dose of seletalisib or placebo. PK analysis was performed on the PK per-protocol set (PK-PPS), which was a subset of the FAS consisting of subjects with no important protocol deviations likely to affect PK variables who received seletalisib; subjects who received placebo were excluded from this analysis. In Study-1 and Study-2, sample sizes of 57 and 36 subjects, respectively, were considered sufficient to permit assessment of the safety and tolerability of seletalisib and were not based on statistical considerations of power and sample size. In Study-1 (Part-A), a panel size of 15 subjects was selected to achieve good estimates of the PK/PD parameters.

[2] = Study-2 single-dose pharmacokinetics (plasma); format: in vivo, human; settings: for AUC(0-t) / half-life / Cmax / Tmax / AUC / MRT / Vd/F: human, plasma, oral; for Vd/F: read-out: Vz/F
Source text: These were phase I, randomised, double-blind, placebo-controlled studies designed to evaluate the safety, tolerability, PK and PD profiles of seletalisib following oral administration of single ascending doses and multiple ascending doses. Study-1 was a first-in-human, double-blind (sponsor-, investigator- and subject-blind) study that had two parts: Part-A evaluated seletalisib (single ascending doses) in healthy adults (including evaluation of food effects; Table 1); Part-B evaluated seletalisib (multiple ascending doses) in healthy adults and subjects with mild-to-moderate psoriasis. Study-2 was also a double-blind study of seletalisib (single and multiple ascending doses) in healthy subjects, which investigated higher doses.
Plasma concentrations of seletalisib were measured by high-performance liquid chromatography with tandem mass spectrometry (see Online Resource S1 for further details). The following PK parameters were determined in each study: AUC for seletalisib, maximum observed plasma concentration of seletalisib after a single dose (Cmax) and at steady-state (Cmaxss), time of occurrence of Cmax (tmax, obtained directly from the observed plasma concentration-time curves), minimum observed plasma concentration of seletalisib at steady-state immediately before the next dose would be administered (Ctrough), apparent terminal half-life, apparent volume of distribution after single dosing (Vz/F) and at steady-state (Vzss/F) and apparent total body clearance after single dosing (CL/F) and at steady-state (CLss/F). Accumulation factor based on AUC(0–24) [R(AUC)] and accumulation factor based on Cmax [R(Cmax)] were determined on multiple dose day 14. The following study-specific PK parameters were also determined: Study-1, total amount of seletalisib excreted in urine (Ae), renal clearance (CLr) and fraction of drug excreted in urine; Study-2, AUC(0–10) in BID dose groups, terminal elimination rate constant in plasma (λz), mean residence time (MRT) and linearity factor (LF [AUC(0–24)ss/AUC]).
Methods for the calculation of seletalisib PK parameters are detailed in Online Resource S1.
Seletalisib PK parameters were calculated via non-compartmental analysis methods from the individual concentration-time data using Phoenix WinNonlin version 6.2 (Certara, Princeton, NJ, USA). Urine (Study-1 only) and plasma PK parameters of seletalisib were reported for each subject and summarised by study part and dose group. Geometric mean and percentage geometric coefficient of variation (GeoCV%) were reported for all parameters except for tmax, which was reported using median and range. Dose proportionality for AUC and Cmax at Day_1 (Study-1 [Part-A & Part-B]; Study-2, single ascending dose-Day_1) and at steady state at Day_14 (Study-1 [Part-B]; Study-2, multiple ascending dose-Day_14) was examined via the power model and reported graphically. In Study-1, an assessment of food effect (fed versus fasted) was made for Cmax and AUC from the data for subjects who received the same dose in fed and fasted states in Part-A.

[3] = Study-2 single dose, 30 mg QD cohort, geo mean (GeoCV%)
[4] = Study-2 single dose, 45 mg QD cohort, geo mean (GeoCV%)
[5] = Study-2 single dose, 60 mg QD cohort, geo mean (GeoCV%)
[6] = Study-2 single dose, 90 mg QD cohort, geo mean (GeoCV%)

## [O-][n+]1cccc(-c2nc3c(Cl)cccc3cc2[C@@H](Nc2ncnc3cccnc23)C(F)(F)F)c1 [Seletalisib, seletalisib]
[1]; 5 mg, 14 days
  Deaths: 0 n (%)
[1]; 8 mg, 14 days
  Deaths: 0 n (%)
[1]; 15 mg, 14 days (psoriasis cohort)
  Deaths: 0 n (%)
[1]; seletalisib total
  Deaths: 0 n (%)
[1]; in vivo
  glucose handling versus baseline (oral glucose tolerance test): no significant alteration
  neutrophil counts: Modest reductions
  number of AEs of potential GI disturbance: Six
  number of moderate AEs: three
[2]; [3]
  CL/F: 2.65 (30.4) L/h
  AUC: 11300 ng·h/mL
  MRT: 22.1 h
  Vd/F: 74.4 L
[2]; [4]
  CL/F: 2.61 (33.0) L/h
  AUC: 17300 ng·h/mL
  MRT: 23 h
  Vd/F: 84.2 L
[2]; [5]
  CL/F: 2.19 (32.3) L/h
  AUC: 27400 ng·h/mL
  MRT: 21.5 h
  Vd/F: 57.2 L
[2]; [6]
  CL/F: 2.58 (33.3) L/h
  AUC: 34900 ng·h/mL
  MRT: 22.4 h
  Vd/F: 77.3 L
[2]; 30 mg, Study-2 single dose, 30 mg QD cohort, geo mean (GeoCV%), read-out: AUC(0–24)
  AUC(0-t): 6490 ng·h/mL
[2]; 30 mg, Study-2 single dose, 30 mg QD cohort, geo mean (GeoCV%), read-out: AUC(0–t)
  AUC(0-t): 10200 ng·h/mL
[2]; 30 mg, Study-2 single-dose part, 30 mg BID cohort, geo mean (GeoCV%), read-out: AUC(0–10)
  AUC(0-t): 3500 ng·h/mL
[2]; 45 mg, Study-2 single dose, 45 mg QD cohort, geo mean (GeoCV%), read-out: AUC(0–24)
  AUC(0-t): 9280 ng·h/mL
[2]; 45 mg, Study-2 single dose, 45 mg QD cohort, geo mean (GeoCV%), read-out: AUC(0–t)
  AUC(0-t): 15100 ng·h/mL
[2]; 60 mg, Study-2 single dose, 60 mg QD cohort, geo mean (GeoCV%), read-out: AUC(0–24)
  AUC(0-t): 16300 ng·h/mL
[2]; 60 mg, Study-2 single dose, 60 mg QD cohort, geo mean (GeoCV%), read-out: AUC(0–t)
  AUC(0-t): 25100 ng·h/mL
[2]; 90 mg, Study-2 single dose, 90 mg QD cohort, geo mean (GeoCV%), read-out: AUC(0–24)
  AUC(0-t): 19700 ng·h/mL
[2]; 90 mg, Study-2 single dose, 90 mg QD cohort, geo mean (GeoCV%), read-out: AUC(0–t)
  AUC(0-t): 31200 ng·h/mL
[2]; Study-2, range across dose groups, read-out: geometric mean t1/2
  half-life: 18.1 to 22.4 h
[2]; Study-2, single dose, range across groups, read-out: geometric mean Cmax
  Cmax: 517 to 1510 ng/mL
[2]; Study-2, single dose, range across groups, read-out: median tmax
  Tmax: 3 to 4 h
[2]; Study-2 single dose, 30 mg QD cohort, geo mean (GeoCV%), read-out: Cmax
  Cmax: 517 ng/mL
[2]; Study-2 single dose, 30 mg QD cohort, geo mean (GeoCV%), read-out: t1/2 (converted)
  half-life: 19.5 h
[2]; Study-2 single dose, 30 mg QD cohort, median (range), read-out: tmax
  Tmax: 4 h
[2]; Study-2 single dose, 45 mg QD cohort, geo mean (GeoCV%), read-out: Cmax
  Cmax: 691 ng/mL
[2]; Study-2 single dose, 45 mg QD cohort, geo mean (GeoCV%), read-out: t1/2 (converted)
  half-life: 22.4 h
[2]; Study-2 single dose, 45 mg QD cohort, median (range), read-out: tmax
  Tmax: 4 h
[2]; Study-2 single dose, 60 mg QD cohort, geo mean (GeoCV%), read-out: Cmax
  Cmax: 1250 ng/mL
[2]; Study-2 single dose, 60 mg QD cohort, geo mean (GeoCV%), read-out: t1/2 (converted)
  half-life: 18.1 h
[2]; Study-2 single dose, 60 mg QD cohort, median (range), read-out: tmax
  Tmax: 3 h
[2]; Study-2 single dose, 90 mg QD cohort, geo mean (GeoCV%), read-out: Cmax
  Cmax: 1510 ng/mL
[2]; Study-2 single dose, 90 mg QD cohort, geo mean (GeoCV%), read-out: t1/2 (converted)
  half-life: 20.8 h
[2]; Study-2 single dose, 90 mg QD cohort, median (range), read-out: tmax
  Tmax: 4 h
